This is an account of results in patent US4036979A, “Compositions containing 4,5,6,7-tetrahydrobenz[b]thien-4-yl-ureas or derivatives and methods of enhancing growth rate” (American Cyanamid Company, priority 1976, dated 1977).

Structures are written as SMILES.

A short description of one experiment: Mouse Growth Regulant Tests (12-day weight gain over controls, compound in diet). The conditions noted are these: Mus musculus, feed or water, 288 h, Table IX; 400 ppm in diet. Type of experiment: in vivo, CFI female mice. On the procedure:
CFI female mice from Carworth Farms are received when they are six weeks old. They are housed ten to a cage in air-conditioned rooms (72° F. to 76° F.) with automatically controlled lights, 14 hours on and 10 hours off. The basal diet used in these studies is Purina Laboratory Chow (see description below), which is supplied ad libitum. Water is also allowed ad libitum.
Thirteen days after arrival, the mice are weighed in groups of ten and assigned at random to the different treatments. Twelve days later the mice are weighed again and the experiment terminated. At least three cages (30 mice) of untreated controls are included in each test. Test data are provided in Tables VI, VII, VIII, and IX below wherein data are reported as percent weight gain over controls. Unless otherwise indicated in these tables, all compounds tested were dl-racemic mixtures. The following is a description of the diet to which the growth promoting compounds were added.
For the molecule `CCNC(=S)NC1CCCCc2sccc21` (centres unmarked) [Table IX: S,H,H,C2H5, 1-ethyl-3-(5,6,7,8-tetrahydro-4H-cyclohepta[b]thien-4-yl)-2-thiourea], the change in vivo at 400 ppm came to 40%.
As for `COCNC(=O)NC1CCCCc2sccc21` (centres unmarked) [Table IX: O,H,H,CH2OCH3, 1-(methoxymethyl)-3-(5,6,7,8-tetrahydro-4H-cyclohepta[b]thien-4-yl)urea], the change in vivo at 400 ppm stood at 10%.
Regarding `NC(=O)NC1CCCC(=O)c2sccc21` (centres unmarked) [5,6,7,8-tetrahydro-4H-8-oxocyclohepta[b]thien-4-ylurea], the change in vivo at 400 ppm is 68.8%.
On the same count and under the same terms, in the case of `NC(=O)NC1CCCCc2sccc21` (centres unmarked) [Table IX: O,H,H,H, 5,6,7,8-tetrahydro-4H-cyclohepta[b]thien-4-ylurea] it was 54%.

Still in this experiment, the particulars now being: Mus musculus, feed or water, 288 h, Table VI; 400 ppm in diet.
On to `CN(C)C(=O)NC1CCCc2sccc21` (centres unmarked) [Table VI: O,H,H,H,CH3,CH3, 1,1-dimethyl-3-(4,5,6,7-tetrahydrobenzo[b]thien-4-yl)urea], for which the change in vivo at 400 ppm amounted to 55.1%.
Turning to `CONC(=O)NC1CCCc2sccc21` (centres unmarked) [Table VI: O,H,H,H,H,OCH3, 1-methoxy-3-(4,5,6,7-tetrahydrobenzo[b]thien-4-yl)urea], the change in vivo at 400 ppm stood at 68.6%.
On to `O=C(O)CONC(=O)NC1CCCc2sccc21` (centres unmarked) [Table VI: O,H,H,H,H,OCH2CO2H], for which the change in vivo at 400 ppm is 63.3%.
As to `C#CCN(CC#C)C(=O)NC1CCCc2sccc21` (centres unmarked) [Table VI: O,H,H,H,CH2CCH,CH2CCH], the change in vivo at 400 ppm came to 27%.
Consider `O=C(NCc1ccccc1)NC1CCCc2sccc21` (centres unmarked) [Table VI: O,H,H,H,H,CH2C6H5, 1-benzyl-3-(4,5,6,7-tetrahydrobenzo[b]thien-4-yl)urea], for which the change in vivo at 400 ppm came to 32.4%.
Turning to `Cc1sc2c(c1C)C(NC(N)=O)CCC2` (centres unmarked) [Table VI: O,CH3,CH3,H,H,H], the change in vivo at 400 ppm is 0%.
With `CC(C)N(O)C(=O)NC1CCCc2sccc21` (centres unmarked) [Table VI: O,H,H,H,CH(CH3)2,OH], the change in vivo at 400 ppm was 32%.
On the same count and under the same terms, to `O=C(NCNC(=O)NC1CCCc2sccc21)NC1CCCc2sccc21` (centres unmarked) belongs 29%.
On the same count and under the same terms, to `O=C(NC1CCCc2sccc21)N1CCOCC1` (centres unmarked) [Table VI: O,H,H,H,CH2CH2OCH2CH2, N-(4,5,6,7-tetrahydrobenzo[b]thien-4-yl)-4-morpholinecarboxamide] belongs 9.9%.
As to `CCC(C)NC(=O)NC1CCCc2sc(C)cc21` (centres unmarked) [Table VI: O,CH3,H,H,2-butyl,H], the change in vivo at 400 ppm was determined as 2%.
For the molecule `NC(=O)NC1CCCc2sc(Br)cc21` (centres unmarked) [Table VI: O,Br,H,H,H,H, 2-bromo-4,5,6,7-tetrahydrobenzo[b]-thien-4-ylurea], the change in vivo at 400 ppm is 76.3%.
Regarding `COc1ccc(NC(=O)NC2CCCc3sccc32)cc1` (centres unmarked), the change in vivo at 400 ppm amounted to 78%.
As to `S=C(NC1CC1)NC1CCCc2sccc21` (centres unmarked), the change in vivo at 400 ppm was 32%.
Take `C=CCN(CC=C)C(=O)NC1CCCc2sccc21` (centres unmarked) [Table VI: O,H,H,H,CH2CHCH2,CH2CHCH2]: the change in vivo at 400 ppm was determined as 4%.
Take `COC(=O)NNC(=O)NC1CCCc2sccc21` (centres unmarked) [Table VI: O,H,H,H,H,NHCO2CH3]: the change in vivo at 400 ppm was 18%.
`COC(CNC(=O)NC1CCCc2sccc21)OC` (centres unmarked) [Table VI: O,H,H,H,H,CH2CH(OCH3)2]: the change in vivo at 400 ppm stood at 22%.
With `O=C(Nc1ccc(Cl)cc1)NC1CCCc2sccc21` (centres unmarked), the change in vivo at 400 ppm stood at 21%.
The same measure, in the same setting: to `NC(=O)NC1CCCc2sc([N+](=O)[O-])cc21` (centres unmarked) [Table VI: O,NO2,H,H,H,H, 2-nitro-4,5,6,7-tetrahydrobenzo[b]thien-4-ylurea] belongs 17%; to `CCCCCCNC(=O)NC1CCCc2scc(C)c21` (centres unmarked) [Table VI: O,H,CH3,H,H,n-hexyl], 21%.
Regarding `CCOc1ccc(NC(=O)NC2CCCc3sccc32)cc1` (centres unmarked), the change in vivo at 400 ppm was 8%.
Still for that read-out and setting: in the case of `COc1ccc(NC(=S)NC2CCCc3sccc32)cc1` (centres unmarked) it was -1.4%; in that of `CC(=O)NC(=O)NC1CCCc2sccc21` (centres unmarked), -1.4%.
Consider `CCNC(=S)NC1CCCc2sccc21` (centres unmarked) [Table VI: S,H,H,H,H,C2H5, 1-ethyl-3-(4,5,6,7-tetrahydrobenzo[b]thien-4-yl)thiourea], for which the change in vivo at 400 ppm came out at 54.6%.
Consider `COc1ccc(OC)c(NC(=O)NC2CCCc3sccc32)c1` (centres unmarked), for which the change in vivo at 400 ppm was 32.4%.
Consider `N#CNC(=O)NC1CCCc2sccc21` (centres unmarked) [Table VI: O,H,H,H,H,CN], for which the change in vivo at 400 ppm worked out at 1%.
`O=C(NC1CCCc2sccc21)N1CCCc2ccccc21` (centres unmarked): the change in vivo at 400 ppm is 4%.
As to `CCCCOc1ccc(NC(=O)NC2CCCc3sccc32)cc1` (centres unmarked), the change in vivo at 400 ppm worked out at 9%.
`O=C(NC1CCCc2sccc21)N(O)Cc1ccccc1` (centres unmarked) [Table VI: O,H,H,H,CH2C6H5,OH]: the change in vivo at 400 ppm was 12%.
Turning to `CCOC(=O)NC(=S)NC1CCCc2sccc21` (centres unmarked) [Table VI: S,H,H,H,H,CO2C2H5], the change in vivo at 400 ppm was 22.3%.
As for `COc1ccc(CNC(=O)NC2CCCc3sccc32)cc1` (centres unmarked), the change in vivo at 400 ppm stood at 16%.
Same read-out and setting: in the case of `O=C(NCCO)NC1CCCc2sccc21` (centres unmarked) [Table VI: O,H,H,H,H,CH2CH2OH] it was 3%; in that of `CN(C)NC(=O)NC1CCCc2sccc21` (centres unmarked) [Table VI: O,H,H,H,H,N(CH3)2], 3%.

The same experiment, now with this note: Mus musculus, feed or water, 288 h, Table VII; 200 ppm in diet.
For the molecule `CN(C)C(=O)NC1CCC(=O)c2sccc21` (centres unmarked) [Table VII: O,CH3,CH3, 1,1-dimethyl-3-(4,5,6,7-tetrahydro-7-oxobenzo[b]thien-4-yl)urea], the change in vivo at 200 ppm stood at 58.6%.
Take `C#CCNC(=O)NC1CCC(=O)c2sccc21` (centres unmarked) [Table VII: O,H,CH2CCH, 1-(2-propynyl)-3-(4,5,6,7-tetrahydro-7-oxobenzo[b]thien-4-yl)urea]: the change in vivo at 200 ppm came to 40.6%.

Still in this experiment, the particulars now being: Mus musculus, feed or water, 288 h, Table VII; 400 ppm in diet.
For `CCNC(=O)NC1CCC(=O)c2sccc21` (centres unmarked) [Table VII: O,H,C2H5, 1-ethyl-3-(4,5,6,7-tetrahydro-7-oxobenzo[b]thien-4-yl)urea], the change in vivo at 400 ppm was 79.3%.
The same measure, in the same setting: to `CCCCCCCCCCNC(=O)NC1CCC(=O)c2sccc21` (centres unmarked) [Table VII: O,H,n-C10H21] belongs 15.4%.
For `CCCCCCCCCCCCCCNC(=O)NC1CCC(=O)c2sccc21` (centres unmarked) [Table VII: O,H,n-C14H29], the change in vivo at 400 ppm was 9.7%.

The experiment is the same for the next values; noted with them: Mus musculus, feed or water, 288 h, Table VIII; 200 ppm in diet.
For `CON(C)C(=O)NC1CCC(O)c2sccc21` (centres unmarked) [Table VIII: O,CH3,OCH3, 1-methyl-1-methoxy-3-(7-hydroxy-4,5,6,7-tetrahydrobenzo[b]-thien-4-yl)urea], the change in vivo at 200 ppm amounted to 60.5%.
Turning to `CCNC(=O)NC1CCC(O)c2sccc21` (centres unmarked) [Table VIII: O,H,C2H5, 1-ethyl-3-(7-hydroxy-4,5,6,7-tetrahydrobenzo[b]thien-4-yl)urea], the change in vivo at 200 ppm is 73.4%.
With `CC(C)NC(=O)NC1CCC(O)c2sccc21` (centres unmarked) [Table VIII: O,H,iso-C3H7], the change in vivo at 200 ppm is 43.9%.

Staying with this experiment, now noted: Mus musculus, feed or water, 288 h, Table VIII; 400 ppm in diet.
`CNC(=S)NC1CCC(O)c2sccc21` (centres unmarked) [Table VIII: S,H,CH3]: the change in vivo at 400 ppm was 85.1%.
In the case of `CNC(=O)NC1CCC(O)c2sccc21` (centres unmarked) [Table VIII: O,H,CH3, 1-methyl-3-(7-hyroxy-4,5,6,7-tetrahydrobenzo[b]thien-4-yl)urea], the change in vivo at 400 ppm was 60.2%.

The same experiment, now with this note: Table VIII; 25 ppm in diet.
In the case of `NC(=O)NC1CCC(O)c2sccc21` (single isomer, unassigned; (+)) [Table VIII: O,H,H (dextrorotatory diastereomer, 90% isomer A), (+)-4,5,6,7-tetrahydro-7-hydroxybenzo[b]thien-4-ylurea], the “& Weight Gain Over Controls” value is on record as 3.7%.
